Biological target: human TPH1 (Homo sapiens (Human), UniProt P17752)
Assay: Biochemical in vitro assay using fluorescence readout (TPH1 inhibition)
Conditions: not given

Sequence of human TPH1 (P17752 whole entry): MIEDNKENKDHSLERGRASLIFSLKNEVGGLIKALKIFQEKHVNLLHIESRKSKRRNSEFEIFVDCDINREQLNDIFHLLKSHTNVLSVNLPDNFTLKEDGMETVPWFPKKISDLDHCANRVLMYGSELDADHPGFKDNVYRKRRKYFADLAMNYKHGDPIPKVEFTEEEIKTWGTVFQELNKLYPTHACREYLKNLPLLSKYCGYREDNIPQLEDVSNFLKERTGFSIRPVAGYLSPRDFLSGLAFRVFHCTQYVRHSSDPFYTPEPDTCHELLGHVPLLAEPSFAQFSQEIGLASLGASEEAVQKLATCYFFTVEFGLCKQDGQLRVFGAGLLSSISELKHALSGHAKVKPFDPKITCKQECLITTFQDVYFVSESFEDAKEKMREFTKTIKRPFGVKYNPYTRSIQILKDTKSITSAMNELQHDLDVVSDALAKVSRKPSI

Row | Compound | IC50 [nM]
1 | Cc1ccc(C2c3c(nc4sc(C)nn34)CCN2C(=O)COc2ccc(NS(C)(=O)=O)nc2Cl)c(F)c1 (stereo not drawn) [Example 1.53.2, N-(6-chloro-5-(2-(5-(2-fluoro-4-methylphenyl)-2-methyl-7,8-dihydro-[1,3,4]thiadiazolo[2′,3′:2,3]imidazo[4,5-c]pyridin-6(5H)-yl)-2-oxoethoxy)pyridin-2-yl)methanesulfonamide] | 12

Same assay, conditions: full length human TPH1, 40 μM L-tryptophan, 15° C., 60 minutes, fluorescence at 540 nm; mean if determined several times

Row | Compound | IC50 [nM]
2 | Cc1nn2c3c(nc2s1)CCN(C(=O)COc1ccc(C(=O)N(C)C)nc1Cl)C3c1ncc(C(=O)N(C)C)s1 (stereo not drawn) [Example 1.37.4, 2-(6-(2-((2-Chloro-6-(dimethylcarbamoyl)pyridin-3-yl)oxy)acetyl)-2-methyl-5,6,7,8-tetrahydro-[1,3,4]thiadiazolo[2′,3′:2,3]imidazo[4,5-c]pyridin-5-yl)-N,N-dimethylthiazole-5-carboxamide] | 40
3 | Cc1nn2c3c(nc2s1)CCN(C(=O)COc1ccc(N2CCOCC2)nc1Cl)C3c1cc(-c2nn[nH]n2)cs1 (stereo not drawn) [Example 1.63.1, 1-(5-(4-(2H-Tetrazol-5-yl)thiophen-2-yl)-2-methyl-7,8-dihydro-[1,3,4]-thiadiazolo-[2′,3′:2,3]imidazo[4,5-c]pyridin-6(5H)-yl)-2-((2-chloro-6-morpholinopyridin-3-yl)oxy)ethanone] | 23

Same assay, conditions: human TPH1, fluorescence readout

Row | Compound | IC50 [nM]
4 | Cc1nn2c3c(nc2s1)CCN(C(=O)COc1ccc(N2CCOCC2)nc1Cl)C3c1cncs1 (stereo not drawn) [Example 1.39.3, 2-((2-chloro-6-morpholinopyridin-3-yl)oxy)-1-(2-methyl-5-(thiazol-5-yl)-7,8-dihydro-[1,3,4]thiadiazolo[2′,3′:2,3]imidazo[4,5-c]pyridin-6(5H)-yl)ethanone] | 5
5 | Cc1nn2c3c(nc2s1)CCN(C(=O)COc1cccnc1Cl)C3c1ccc(C2CC2)cc1F (stereo not drawn) [Example 1.6.11, 2-((2-chloropyridin-3-yl)oxy)-1-(5-(4-cyclopropyl-2-fluorophenyl)-2-methyl-7,8-dihydro-[1,3,4]thiadiazolo[2′,3′:2,3]imidazo[4,5-c]pyridin-6(5H)-yl)ethanone] | 14
6 | CN(C)C(=O)c1ccc(OCC(=O)N2CCc3nc4sccn4c3C2c2sc(C(=O)N(C)C)cc2F)c(Cl)n1 (stereo not drawn) [Example 6.9.2, 6-chloro-5-(2-(5-(5-(dimethylcarbamoyl)-3-fluoro-thiophen-2-yl)-7,8-dihydrothiazolo[2′,3′:2,3]imidazo-[4,5-c]pyridin-6(5H)-yl)-2-oxoethoxy)-N,N-dimethylpicolinamide] | 5
7 | Cc1nn2c3c(nc2s1)CCN(C(=O)COc1ccc(N2CCOCC2)nc1Cl)C3c1cc(C(C)(C)O)cs1 (stereo not drawn) [Example 1.20.1, 2-((2-chloro-6-morpholinopyridin-3-yl)oxy)-1-(5-(4-(2-hydroxypropan-2-yl)thiophen-2-yl)-2-methyl-7,8-dihydro-[1,3,4]thiadiazolo[2′,3′:2,3]imidazo[4,5-c]pyridin-6(5H)-yl)ethanone] | 12
8 | COCc1ccc(C2c3c(nc4sc(C)nn34)CCN2C(=O)COc2ccc(C(=O)NC3CC3)nc2Cl)c(F)c1 (stereo not drawn) [Example 1.82.2, 6-chloro-N-cyclopropyl-5-(2-(5-(2-fluoro-4-(methoxymethyl)phenyl)-2-methyl-7,8-dihydro-[1,3,4]thiadiazolo[2′,3′:2,3]imidazo[4,5-c]pyridin-6(5H)-yl)-2-oxoethoxy)picolinamide] | 14
9 | Cc1nc(C)c(C2c3c(nc4sc(C)nn34)CCN2C(=O)COc2ccc(C(=O)N(C)C3CC3)nc2Cl)s1 (stereo not drawn) [Example 1.68.4, 6-chloro-N-cyclopropyl-5-(2-(5-(2,4-dimethylthiazol-5-yl)-2-methyl-7,8-dihydro-[1,3,4]thiadiazolo[2′,3′:2,3]imidazo[4,5-c]pyridin-6(5H)-yl)-2-oxoethoxy)-N-methylpicolinamide] | 19
10 | CCc1nc(NS(C)(=O)=O)ccc1OCC(=O)N1CCc2nc3sc(C(F)(F)F)nn3c2C1c1ccc(C)cc1F (stereo not drawn) [Example 5.3.1, N-(6-ethyl-5-(2-(5-(2-fluoro-4-methylphenyl)-2-(trifluoromethyl)-7,8-dihydro-[1,3,4]thiadiazolo[2′,3′:2,3]imidazo[4,5-c]pyridin-6(5H)-yl)-2-oxoethoxy)pyridin-2-yl)methanesulfonamide] | 28
11 | CC(=O)Nc1ccc(C2c3c(nc4sc(C)nn34)CCN2C(=O)COc2ccc(N3CCOCC3)nc2Cl)s1 (stereo not drawn) [Example 1.13.1, N-(5-(6-(2-((2-chloro-6-morpholinopyridin-3-yl)oxy)acetyl)-2-methyl-5,6,7,8-tetrahydro-[1,3,4]thiadiazolo [2′,3′:2,3]imidazo[4,5-c]pyridin-5-yl)thiophen-2-yl)acetamide] | 54
12 | CNC(=O)c1ccc(C2c3c(nc4sc(C)nn34)CCN2C(=O)COc2ccc(C(=O)N(C)C)nc2Cl)o1 (stereo not drawn) [Example 1.42.1, 6-chloro-N,N-dimethyl-5-(2-(2-methyl-5-(5-(methylcarbamoyl)furan-2-yl)-7,8-dihydro-[1,3,4]thiadiazolo[2′,3′:2,3]imidazo[4,5-c]pyridin-6(5H)-yl)-2-oxoethoxy)picolinamide] | 49
13 | CNC(=O)c1cc(F)c(C2c3c(nc4sc(C)nn34)CCN2C(=O)COc2ccc(C(N)=O)nc2Cl)s1 (stereo not drawn) [Example 1.25.6, 6-chloro-5-(2-(5-(3-fluoro-5-(methylcarbamoyl)thiophen-2-yl)-2-methyl-7,8-dihydro-[1,3,4]thiadiazolo[2′,3′:2,3]imidazo[4,5-c]pyridin-6(5H)-yl)-2-oxoethoxy)picolinamide] | 8
14 | Cc1nn2c3c(nc2s1)CCN(C(=O)COc1ccc(NS(C)(=O)=O)cc1Cl)C3c1ncc(Cl)cc1F (stereo not drawn) [Example 1.33.7, N-(3-chloro-4-(2-(5-(5-chloro-3-fluoropyridin-2-yl)-2-methyl-7,8-dihydro-[1,3,4]thiadiazolo[2′,3′:2,3]imidazo[4,5-c]pyridin-6(5H)-yl)-2-oxoethoxy)phenyl)methanesulfonamide] | 13
15 | Cn1nc(OCC(=O)N2CCc3nc4sccn4c3C2c2nc3ccccc3s2)c(Cl)c1C(F)(F)F (stereo not drawn) [Example 6.12.7, 1-(5-(benzo[d]thiazol-2-yl)-7,8-dihydrothiazolo-[2′,3′:2,3]imidazo[4,5-c]pyridin-6(5H)-yl)-2-((4-chloro-1-methyl-5-(trifluoromethyl)-1H-pyrazol-3-yl)-oxy)ethanone] | 62
16 | CNC(=O)c1ccc(OCC(=O)N2CCc3nc4sc(C)nn4c3C2c2ncc(C)cc2F)c(Cl)n1 (stereo not drawn) [Example 1.31.6, 6-chloro-5-(2-(5-(3-fluoro-5-methylpyridin-2-yl)-2-methyl-7,8-dihydro-[1,3,4]thiadiazolo[2′,3′:2,3]imidazo[4,5-c]pyridin-6(5H)-yl)-2-oxoethoxy)-N-methylpicolinamide] | 7
17 | Cc1nn2c3c(nc2s1)CCN(C(=O)COc1ccc(N2CCOCC2)nc1Cl)C3c1sc(C(=O)N(C)C)cc1F (stereo not drawn) [Example 1.24.1, 5-(6-(2-((2-chloro-6-morpholinopyridin-3-yl)oxy)acetyl)-2-methyl-5,6,7,8-tetrahydro-[1,3,4]thiadiazolo[2′,3′:2,3]imidazo[4,5-c]pyridin-5-yl)-4-fluoro-N,N-dimethylthiophene-2-carboxamide] | 2
18 | Cc1nn2c3c(nc2s1)CCN(C(=O)COc1ccc(N(C)C)nc1Cl)C3c1cc(CN(C)C)cs1 (stereo not drawn) [Example 1.8.4, 2-((2-chloro-6-(dimethylamino)pyridin-3-yl)oxy)-1-(5-(4-((dimethylamino)methyl)thiophen-2-yl)-2-methyl-7,8-dihydro-[1,3,4]thiadiazolo[2′,3′:2,3]imidazo[4,5-c]pyridin-6(5H)-yl)ethanone] | 106
19 | O=C(COc1ccc(-c2ncco2)nc1Cl)N1CCc2nc3sc(C4CC4)nn3c2C1c1ccc(Cl)cc1F (stereo not drawn) [Example 4.1.3, 1-(5-(4-chloro-2-fluorophenyl)-2-cyclopropyl-7,8-dihydro-[1,3,4]thiadiazolo[2′,3′:2,3]imidazo[4,5-c]pyridin-6(5H)-yl)-2-((2-chloro-6-(oxazol-2-yl)pyridin-3-yl)oxy)ethanone] | 13
20 | Cc1nn2c3c(nc2s1)CCN(C(=O)COc1ccc(CN2CCOCC2)nc1Cl)C3c1ccc(Cl)cc1F (stereo not drawn) [Example 1.4.1, 1-(5-(4-chloro-2-fluorophenyl)-2-methyl-7,8-dihydro-[1,3,4]thiadiazolo[2′,3′:2,3]imidazo[4,5-c]pyridin-6(5H)-yl)-2-((2-chloro-6-(morpholinomethyl)pyridin-3-yl)oxy)ethanone] | 9
21 | COC1(c2cnc(C3c4c(nc5sc(C)nn45)CCN3C(=O)COc3ccc(N4CCOCC4)nc3Cl)s2)COC1 (stereo not drawn) [Example 1.65.1, 2-((2-chloro-6-morpholinopyridin-3-yl)oxy)-1-(5-(5-(3-methoxyoxetan-3-yl)thiazol-2-yl)-2-methyl-7,8-dihydro-[1,3,4]thiadiazolo[2′,3′:2,3]imidazo[4,5-c]pyridin-6(5H)-yl)ethanone] | 208
22 | CNS(=O)(=O)Nc1ccc(OCC(=O)N2CCc3nc4sc(C)nn4c3C2c2ccc(Cl)cc2F)c(Cl)n1 (stereo not drawn) [Example 1.4.52, N-(6-chloro-5-(2-(5-(4-chloro-2-fluorophenyl)-2-methyl-7,8-dihydro-[1,3,4]thiadiazolo[2′,3′:2,3]imidazo[4,5-c]pyridin-6(5H)-yl)-2-oxoethoxy)pyridin-2-yl)-N′-methyl-sulfamide] | 38
23 | Cc1nn2c3c(nc2s1)CCN(C(=O)COc1ccc(C(=O)N(C)C)nc1Cl)C3c1cc(F)ccc1F (stereo not drawn) [Example 1.57.1, 6-chloro-5-(2-(5-(2,5-difluorophenyl)-2-methyl-7,8-dihydro-[1,3,4]thiadiazolo[2′,3′:2,3]imidazo[4,5-c]pyridine-6(5H)-yl)-2-oxoethoxy)-N,N-dimethylpicolinamide] | 30
24 | Cc1nn2c3c(nc2s1)CCN(C(=O)COc1ccc(N(C)CC(F)(F)F)nc1Cl)C3c1ncc(C2CC2)cc1F (stereo not drawn) [Example 1.14.10, 2-((2-chloro-6-(methyl(2,2,2-trifluoroethyl)amino)pyridin-3-yl)oxy)-1-(5-(5-cyclopropyl-3-fluoropyridin-2-yl)-2-methyl-7,8-dihydro-[1,3,4]thiadiazolo[2′,3′:2,3]imidazo[4,5-c]pyridin-6(5H)-yl)ethanone] | 4

Reference: patent publication US9765092B2, “Tricyclic piperidine compounds” (ACTELION PHARMACEUTICALS LTD, priority 2013, dated 2017)
